According to ChEMBL document CHEMBL5331051, “Cationic, amphipathic small molecules based on a triazine-piperazine-triazine scaffold as a new class of antimicrobial agents” (Eur J Med Chem, 2022):
≈ marks a conversion by molar mass, not a printed value. Calls of active or inactive are those of the source. No cut-off for these calls is given here.

Experiments:
[1] = test system: Staphylococcus aureus; assay: Synergistic antibacterial activity against methicillin-resistant Staphylococcus aureus CCARM 3089 strain assessed as oxacillin MIC by checkerboard assay; format: functional
[2] = test system: Erythrocyte; assay: Hemolytic activity in sheep RBC assessed as minimal hemolytic concentration causing 10% hemolysis incubated for 1 hr by ELISA; format: toxicity, cell-based, Ovis aries
[3] = test system: Pseudomonas aeruginosa; assay: Antibiofilm activity against multidrug-resistant Pseudomonas aeruginosa assessed as inhibition of biofilm formation; format: functional
[4] = test system: Staphylococcus aureus; assay: Additive antibacterial activity against methicillin-resistant Staphylococcus aureus CCARM 3089 strain assessed as bacterial growth inhibition in presence of chloramphenicol by checkerboard assay; format: functional
[5] = test system: Staphylococcus aureus; assay: Antibacterial activity against methicillin-resistant Staphylococcus aureus CCARM 3090 strain assessed as bacterial growth inhibition measured at 18 to 24 hrs by microdilution assay; format: functional; settings: time 18-24 hrs
[6] = test system: Escherichia coli; assay: Antibacterial activity against Escherichia coli KCTC 1682 strain assessed as bacterial growth inhibition measured at 18 to 24 hrs in presence of 4.5 mM KCl by microdilution assay; format: functional; settings: time 18-24 hrs
[7] = test system: Pseudomonas aeruginosa; assay: Synergistic antibacterial activity against multidrug-resistant Pseudomonas aeruginosa CCARM 2095 strain assessed as ciprofloxacin fractional inhibitory concentration by checkerboard assay; format: functional
[8] = test system: Staphylococcus aureus; assay: Antibacterial activity against Staphylococcus aureus KCTC 1621 strain assessed as bacterial growth inhibition measured at 18 to 24 hrs by microdilution assay; format: functional; settings: time 18-24 hrs
[9] = test system: Staphylococcus aureus; assay: Antibacterial activity against methicillin-resistant Staphylococcus aureus CCARM 3095 strain assessed as bacterial growth inhibition measured at 18 to 24 hrs by microdilution assay; format: functional; settings: time 18-24 hrs
[10] = test system: Pseudomonas aeruginosa; assay: Synergistic antibacterial activity against multidrug-resistant Pseudomonas aeruginosa CCARM 2095 strain assessed as bacterial growth inhibition in presence of ciprofloxacin by checkerboard assay; format: functional
[11] = test system: Cell membrane; assay: Induction of inner membrane permeabilization in Escherichia coli ML-35 assessed as increase in […] at 2 times MIC by ONPG staining based analysis
[12] = test system: Staphylococcus aureus; assay: Additive antibacterial activity against multidrug-resistant Staphylococcus aureus CCARM 3089 strain assessed as fractional inhibitory concentration index in presence of chloramphenicol by checkerboard assay; format: functional
[13] = test system: Staphylococcus aureus; assay: Synergistic antibacterial activity against methicillin-resistant Staphylococcus aureus CCARM 3089 strain assessed as fractional inhibitory concentration in presence of oxacillin by checkerboard assay; format: functional
[14] = test system: Lipopolysaccharide (LPS); assay: Binding affinity to Escherichia coli O111:B4 lipopolysaccharide assessed as suppression of FTIC labeled LPS binding to mouse RAW264.7 cells at 20 ug/ml pretreated LPS with cells for 1 hr followed by compound addition measured after 1 hr by flow cytometer assay (reference value: 48.12%); format: cell-based; settings: dose 20.0 µg/ml
[15] = test system: Staphylococcus aureus; assay: Antibacterial activity against methicillin-resistant Staphylococcus aureus CCARM 3089 strain assessed as bacterial growth inhibition measured at 18 to 24 hrs by microdilution assay; format: functional; settings: time 18-24 hrs
[16] = test system: Pseudomonas aeruginosa; assay: Antibiofilm activity against multidrug-resistant Pseudomonas aeruginosa assessed as biofilm eradication; format: functional
[17] = test system: Staphylococcus aureus; assay: Antibacterial activity against Staphylococcus aureus KCTC 1621 strain assessed as bacterial growth inhibition measured at 18 to 24 hrs in presence of 4 uM FeCl3 by microdilution assay; format: functional; settings: time 18-24 hrs
[18] = test system: Escherichia coli; assay: Antibacterial activity against Escherichia coli KCTC 1682 strain assessed as bacterial growth inhibition measured at 18 to 24 hrs in presence of 4 uM FeCl3 by microdilution assay; format: functional; settings: time 18-24 hrs
[19] = test system: Lipopolysaccharide (LPS); assay: Binding affinity to Escherichia coli O111:B4 lipopolysaccharide assessed as suppression of FTIC labeled LPS binding to mouse RAW264.7 cells at 20 ug/ml pretreated with LPS followed by compound addition by flow cytometer assay (reference value: 67.4%); format: cell-based; settings: dose 20.0 µg/ml
[20] = test system: Pseudomonas aeruginosa; assay: Synergistic antibacterial activity against multidrug-resistant Pseudomonas aeruginosa CCARM 2095 strain assessed as ciprofloxacin fractional inhibitory concentration in presence of ciprofloxacin by checkerboard assay; format: functional
[21] = test system: RAW264.7; assay: Antiinflammatory activity in LPS-induced mouse RAW264.7 cells assessed as reduction in NO production at 5 ug/ml measured after 72 hrs by ELISA assay relative to control; format: functional
[22] = test system: Enterococcus faecium; assay: Antibacterial activity against vancomycin-resistant Enterococcus faecium ATCC 51559 strain assessed as bacterial growth inhibition measured at 18 to 24 hrs by microdilution assay; format: functional; settings: time 18-24 hrs
[23] = test system: Pseudomonas aeruginosa; assay: Antibacterial activity against Pseudomonas aeruginosa KCTC 1637 strain assessed as bacterial growth inhibition measured at 18 to 24 hrs by microdilution assay; format: functional; settings: time 18-24 hrs
[24] = test system: Staphylococcus aureus; assay: Antibacterial activity against Staphylococcus aureus KCTC 1621 strain assessed as bacterial growth inhibition measured at 18 to 24 hrs in presence of 1 mM MgCl2 by microdilution assay; format: functional; settings: time 18-24 hrs
[25] = test system: Staphylococcus aureus; assay: Antibacterial activity against Staphylococcus aureus KCTC 1621 strain assessed as bacterial growth inhibition measured at 18 to 24 hrs in presence of 6 uM NH4Cl by microdilution assay; format: functional; settings: time 18-24 hrs
[26] = test system: Pseudomonas aeruginosa; assay: Antibacterial activity against multidrug-resistant Pseudomonas aeruginosa CCARM 2095 strain assessed as bacterial growth inhibition measured at 18 to 24 hrs by microdilution assay; format: functional; settings: time 18-24 hrs
[27] = test system: Escherichia coli; assay: Antibacterial activity against Escherichia coli KCTC 1682 strain assessed as bacterial growth inhibition measured after 6 hrs in presence of pepsin by radial diffusion assay; format: functional, organism-based
[28] = test system: Escherichia coli; assay: Antibacterial activity against Escherichia coli KCTC 1682 strain assessed as bacterial growth inhibition measured at 18 to 24 hrs in presence of 2.5 mM CaCl2 by microdilution assay; format: functional; settings: time 18-24 hrs
[29] = test system: Pseudomonas aeruginosa; assay: Synergistic antibacterial activity against multidrug-resistant Pseudomonas aeruginosa CCARM 2095 strain assessed as chloramphenicol fractional inhibitory concentration by checkerboard assay; format: functional
[30] = test system: Staphylococcus aureus; assay: Synergistic antibacterial activity against multidrug-resistant Staphylococcus aureus CCARM 3089 strain assessed as ciprofloxacin fractional inhibitory concentration by checkerboard assay; format: functional
[31] = test system: Staphylococcus aureus; assay: Synergistic antibacterial activity against multidrug-resistant Staphylococcus aureus CCARM 3089 strain assessed as fractional inhibitory concentration index in presence of ciprofloxacin by checkerboard assay; format: functional
[32] = test system: Pseudomonas aeruginosa; assay: Synergistic antibacterial activity against multidrug-resistant Pseudomonas aeruginosa CCARM 2095 strain assessed as chloramphenicol fractional inhibitory concentration in presence of chloramphenicol by checkerboard assay; format: functional
[33] = test system: Staphylococcus aureus; assay: Additive antibacterial activity against multidrug-resistant Staphylococcus aureus CCARM 3089 strain assessed as ciprofloxacin fractional inhibitory concentration by checkerboard assay; format: functional
[34] = test system: Pseudomonas aeruginosa; assay: Synergistic antibacterial activity against multidrug-resistant Pseudomonas aeruginosa CCARM 2095 strain assessed as bacterial growth inhibition in presence of oxacillin by checkerboard assay; format: functional
[35] = test system: Lipopolysaccharide (LPS); assay: Displacement of BODIPY-TR-cadaverine from Escherichia coli O111:B4 lipopolysaccharide assessed as increase in fluorescence at 5 ug/ml by fluorescence based assay relative to control; settings: dose 5.0 µg/ml
[36] = test system: Staphylococcus aureus; assay: Synergistic antibacterial activity against methicillin-resistant Staphylococcus aureus CCARM 3089 strain assessed as fractional inhibitory concentration in presence of ciprofloxacin by checkerboard assay; format: functional
[37] = test system: Pseudomonas aeruginosa; assay: Synergistic antibacterial activity against multidrug-resistant Pseudomonas aeruginosa CCARM 2095 strain assessed as oxacillin MIC by checkerboard assay; format: functional

Row | Structure (SMILES) | MIC [1] [µg/mL] | MHC [2] [µM] | MBEC50 [3] [µM] | MBEC90 [3] [µM] | MBIC [3] [µM] | MBIC50 [3] [µM] | MIC [5] [µM] | MIC [6] [µM] | FIC [7] | MIC [8] [µM] | MIC [9] [µM] | MIC [10] [µg/mL] | Activity [11] | FIC [13] | Flu intensity [14] [%] | MIC [15] [µM] | MBEC50 [16] [µM] | MBEC90 [16] [µM] | MIC [17] [µM] | MIC [18] [µM] | other results
1 | NCCNc1nc(NCCN)nc(N2CC(Cc3ccccc3)N(c3nc(NCCN)nc(NCCN)n3)CC2Cc2ccccc2)n1 (stereo not given) | 256 | > 389.1 | 24.3 | 97.3 | 24.3 | 3 | 3 (≈ 1.97 µg/mL) | 6.1 | 0.25 | 6.1 (≈ 4.01 µg/mL) | 12.2 (≈ 8.01 µg/mL) | 4 | inactive | 0.25 | 33.4 | 48.6 (≈ 31.9 µg/mL) | 24.3 | 97.3 | 6.1 | 12.2 | MIC [4]: 16 µg/mL; fractional inhibitory concentration index (FICI) [12]: 0.75; Flu intensity [19]: 21.4%; FIC [20]: 0.25; inhibition at 5 µg/mL [21]: 31.5%; MIC [22]: 24.3 µM (≈ 16 µg/mL); MIC [23]: 6.1 µM (≈ 4.01 µg/mL); MIC [24]: 6.1 µM; MIC [25]: 6.1 µM; MIC [26]: 24.3 µM (≈ 16 µg/mL); Activity [27]: Active; MIC [28]: 6.1 µM
2 | NCCN(CCN)c1nc(NCc2ccccc2)nc(N2CC(Cc3ccccc3)N(c3nc(NCc4ccccc4)nc(N(CCN)CCN)n3)CC2Cc2ccccc2)n1 (stereo not given) | 256 | > 342.5 | 10.4 | 10.4 | 5.2 | 1.3 | 5.4 (≈ 4.52 µg/mL) | 5.4 | 0.25 | 5.4 (≈ 4.52 µg/mL) | 5.4 (≈ 4.52 µg/mL) | 2 | inactive | 0.25 | 16.4 | 5.4 (≈ 4.52 µg/mL) | 10.4 | 10.4 | 5.4 | 10.8 | FIC [29]: 0.25; FIC [30]: 0.125; fractional inhibitory concentration index (FICI) [31]: 0.375; FIC [32]: 0.25; FIC [33]: 0.125; Flu intensity [19]: 8%; FIC [20]: 0.125; MIC [22]: 21.4 µM (≈ 17.9 µg/mL); MIC [34]: 4 µg/mL; MIC [23]: 5.4 µM (≈ 4.52 µg/mL); MIC [24]: 5.4 µM; Activity [35]: 75%; MIC [25]: 5.4 µM; MIC [26]: 21.4 µM (≈ 17.9 µg/mL); FIC [36]: 0.25; Activity [27]: Active; MIC [28]: 5.4 µM; MIC [37]: 128 µg/mL
